Reference: patent publication US9695155B2, “Herbicidal substituted pyrimidinyloxy benzene compounds” (E. I. DU PONT DE NEMOURS AND COMPANY, priority 2013, dated 2017)

How the values were obtained:
[1] = system: pigweed; assay: Test A postemergence; format: in vivo, Amaranthus retroflexus
How it was run: (§1)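 Greenhouse pot test, loam/sand soil. Formulation: non-phytotoxic solvent mix plus surfactant. Pre: directed spray onto soil after sowing. Post: plants at 1–2 leaf, 2–10 cm. Rated visually vs untreated controls at ~10 d, 0 (no effect) to 100 (complete control).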

[2] = system: pigweed; assay: Test A preemergence; format: in vivo, Amaranthus retroflexus
How it was run: as §1

[3] = system: corn; assay: Test A postemergence; format: in vivo, Zea mays
How it was run: as §1

[4] = system: rice; assay: Test B flooded paddy test; format: in vivo, Oryza sativa; conditions: Flood, 250 g ai/ha; 0 to 100 scale where 0 is no effect and 100 is complete control
How it was run: (§2)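 Compound added straight to paddy water, with pots kept flooded 3 cm above soil, on plants grown to the 2-leaf stage. Visual scoring 0-100 (100 = complete control) against untreated controls after 13 to 15 greenhouse days.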

[5] = system: kochia; assay: Test A preemergence; format: in vivo, Kochia scoparia
How it was run: as §1

[6] = system: Heteranthera limosa; assay: Test B flooded paddy test; format: in vivo; conditions: Flood, 250 g ai/ha; 0 to 100 scale where 0 is no effect and 100 is complete control
How it was run: as §2

[7] = system: barnyardgrass; assay: Test A preemergence; format: in vivo, Echinochloa crus-galli; conditions: for Barnyardgrass plant response rating (0 to 100 scale): 31 g ai/ha
How it was run: as §1

[8] = system: barnyardgrass; assay: Test B flooded paddy test; format: in vivo, Echinochloa crus-galli; conditions: Flood, 250 g ai/ha; 0 to 100 scale where 0 is no effect and 100 is complete control
How it was run: as §2

[9] = system: barnyardgrass; assay: Test A postemergence; format: in vivo, Echinochloa crus-galli
How it was run: as §1

[10] = system: kochia; assay: Test A postemergence; format: in vivo, Kochia scoparia
How it was run: as §1

[11] = system: Italian ryegrass; assay: Test A postemergence; format: in vivo, Lolium multiflorum
How it was run: as §1

[12] = system: galium; assay: Test A postemergence; format: in vivo, Galium aparine
How it was run: as §1

[13] = system: giant foxtail; assay: Test A postemergence; format: in vivo, Setaria faberii
How it was run: as §1

[14] = system: ragweed; assay: Test A preemergence; format: in vivo, Ambrosia elatior
How it was run: as §1

[15] = system: sedge, umbrella; assay: Test B flooded paddy test; format: in vivo, Cyperus difformis; conditions: Flood, 250 g ai/ha; 0 to 100 scale where 0 is no effect and 100 is complete control
How it was run: as §2

[16] = system: ragweed; assay: Test A postemergence; format: in vivo, Ambrosia elatior
How it was run: as §1

[17] = system: giant foxtail; assay: Test A preemergence; format: in vivo, Setaria faberii
How it was run: as §1

[18] = system: blackgrass; assay: Test A postemergence; format: in vivo, Alopecurus myosuroides
How it was run: as §1

[19] = system: wheat; assay: Test A postemergence; format: in vivo, Triticum aestivum
How it was run: as §1

[20] = system: Italian ryegrass; assay: Test A preemergence; format: in vivo, Lolium multiflorum
How it was run: as §1

[21] = 31 g ai/ha, 0 to 100 scale, 0 no effect, 100 complete control
[22] = 125 g ai/ha, 0 to 100 scale where 0 is no effect and 100 is complete control
[23] = 1000 g ai/ha, 0 to 100 scale, 0 no effect, 100 complete control
[24] = 1000 g ai/ha, 0 to 100 scale, 0 no effect, 100 complete control, approx. 10 days
[25] = 500 g ai/ha, 0 to 100 scale where 0 is no effect and 100 is complete control

Structure (SMILES): Clc1cnc(Oc2ccccc2-n2ccnc2)nc1 [Compound 100]
- Plant response rating, Pigweed [1, 21]: 0
- Pigweed plant response rating (0 to 100 scale) ([2]; 31 g ai/ha): 0
- Plant response rating, Pigweed [2, 22]: 0
- Plant response rating, Corn [3, 21]: 0
- Plant response rating, Corn [3, 22]: 0
- Plant response rating, Rice [4]: 0
- Kochia plant response rating (0 to 100 scale) ([5]; 31 g ai/ha): 0
- Plant response rating, Kochia [5, 22]: 0
- Plant response rating, Ducksalad [6]: 0
- Barnyardgrass plant response rating (0 to 100 scale) [7]: 0
- Plant response rating, Barnyardgrass [7, 22]: 0
- Plant response rating, Barnyardgrass [8]: 15
- Plant response rating, Barnyardgrass [9, 21]: 0
- Plant response rating, Barnyardgrass [9, 22]: 0
- Plant response rating, Kochia [10, 21]: 0
- Plant response rating, Kochia [10, 22]: 0
- Plant response rating, Ryegrass, Italian [11, 21]: 0
- Plant response rating, Galium [12, 21]: 0
- Plant response rating, Galium [12, 22]: 10
- Plant response rating, Foxtail, Giant [13, 21]: 0
- Plant response rating, Foxtail, Giant [13, 22]: 0
- Ragweed plant response rating (0 to 100 scale) ([14]; 31 g ai/ha): 0
- Plant response rating, Ragweed [14, 22]: 0
- Plant response rating, Sedge, Umbrella [15]: 0
- Plant response rating, Ragweed [16, 21]: 0
- Foxtail, Giant plant response rating (0 to 100 scale) ([17]; 31 g ai/ha): 0
- Plant response rating, Foxtail, Giant [17, 22]: 0
- Plant response rating, Blackgrass [18, 21]: 0
- Plant response rating, Blackgrass [18, 22]: 0
- Plant response rating, Wheat [19, 21]: 0
- Ryegrass, Italian plant response rating (0 to 100 scale) ([20]; 31 g ai/ha): 0
- Plant response rating, Ryegrass, Italian [20, 22]: 0

Structure (SMILES): NS(=O)(=O)c1cnn(-c2ccccc2Oc2ncc(Cl)cn2)c1 [Compound 282]
- Plant response rating, Pigweed [1, 23]: 80
- Pigweed plant response rating [2, 24]: 100
- Plant response rating, Corn [3, 23]: 50
- Plant response rating, Rice [4]: 0
- Kochia plant response rating [5, 24]: 100
- Plant response rating, Ducksalad [6]: 0
- Barnyardgrass plant response rating [7, 24]: 90
- Plant response rating, Barnyardgrass [8]: 0
- Plant response rating, Barnyardgrass [9, 23]: 90
- Plant response rating, Kochia [10, 23]: 90
- Plant response rating, Ryegrass, Italian [11, 23]: 80
- Plant response rating, Galium [12, 23]: 30
- Plant response rating, Foxtail, Giant [13, 23]: 60
- Ragweed plant response rating [14, 24]: 100
- Plant response rating, Sedge, Umbrella [15]: 0
- Plant response rating, Ragweed [16, 23]: 100
- Foxtail, Giant plant response rating [17, 24]: 100
- Plant response rating, Blackgrass [18, 23]: 100
- Plant response rating, Wheat [19, 23]: 0
- Ryegrass, Italian plant response rating [20, 24]: 50

Structure (SMILES): FC(F)(F)COc1cnn(-c2c(Cl)cccc2Oc2ncc(Cl)cn2)c1 [Compound 110]
- Plant response rating, Pigweed [1, 21]: 100
- Pigweed plant response rating (0 to 100 scale) ([2]; 31 g ai/ha): 100
- Plant response rating, Pigweed [2, 22]: 100
- Plant response rating, Corn [3, 21]: 10
- Plant response rating, Corn [3, 22]: 50
- Plant response rating, Rice [4]: 0
- Kochia plant response rating (0 to 100 scale) ([5]; 31 g ai/ha): 20
- Plant response rating, Kochia [5, 22]: 80
- Plant response rating, Ducksalad [6]: 95
- Barnyardgrass plant response rating (0 to 100 scale) [7]: 30
- Plant response rating, Barnyardgrass [7, 22]: 90
- Plant response rating, Barnyardgrass [8]: 45
- Plant response rating, Barnyardgrass [9, 21]: 10
- Plant response rating, Barnyardgrass [9, 22]: 90
- Plant response rating, Kochia [10, 21]: 90
- Plant response rating, Kochia [10, 22]: 100
- Plant response rating, Ryegrass, Italian [11, 21]: 0
- Plant response rating, Galium [12, 21]: 40
- Plant response rating, Galium [12, 22]: 90
- Plant response rating, Foxtail, Giant [13, 21]: 20
- Plant response rating, Foxtail, Giant [13, 22]: 90
- Ragweed plant response rating (0 to 100 scale) ([14]; 31 g ai/ha): 0
- Plant response rating, Ragweed [14, 22]: 10
- Plant response rating, Sedge, Umbrella [15]: 95
- Plant response rating, Ragweed [16, 21]: 10
- Foxtail, Giant plant response rating (0 to 100 scale) ([17]; 31 g ai/ha): 100
- Plant response rating, Foxtail, Giant [17, 22]: 100
- Plant response rating, Blackgrass [18, 21]: 20
- Plant response rating, Blackgrass [18, 22]: 80
- Plant response rating, Wheat [19, 21]: 0
- Ryegrass, Italian plant response rating (0 to 100 scale) ([20]; 31 g ai/ha): 0
- Plant response rating, Ryegrass, Italian [20, 22]: 20

Structure (SMILES): COc1ccc(C#N)c(-n2cc(Br)cn2)c1Oc1ncc(Cl)cn1 [Compound 212]
- Pigweed plant response rating [1, 22]: 20
- Plant response rating, Pigweed [1, 25]: 30
- Pigweed plant response rating (0 to 100 scale) ([2]; 125 g ai/ha): 70
- Pigweed plant response rating [2, 25]: 90
- Corn plant response rating [3, 22]: 0
- Plant response rating, Corn [3, 25]: 0
- Plant response rating, Rice [4]: 0
- Kochia plant response rating (0 to 100 scale) ([5]; 125 g ai/ha): 0
- Kochia plant response rating [5, 25]: 40
- Plant response rating, Ducksalad [6]: 0
- Barnyardgrass plant response rating (0 to 100 scale, 0 is no effect, 100 is complete control) ([7]; 125 g ai/ha): 0
- Barnyardgrass plant response rating [7, 25]: 20
- Plant response rating, Barnyardgrass [8]: 0
- Barnyardgrass plant response rating [9, 22]: 0
- Plant response rating, Barnyardgrass [9, 25]: 0
- Kochia plant response rating [10, 22]: 0
- Plant response rating, Kochia [10, 25]: 10
- Ryegrass, Italian plant response rating [11, 22]: 20
- Plant response rating, Ryegrass, Italian [11, 25]: 30
- Galium plant response rating [12, 22]: 10
- Plant response rating, Galium [12, 25]: 30
- Foxtail, Giant plant response rating [13, 22]: 0
- Plant response rating, Foxtail, Giant [13, 25]: 50
- Ragweed plant response rating (0 to 100 scale) ([14]; 125 g ai/ha): 0
- Ragweed plant response rating [14, 25]: 0
- Plant response rating, Sedge, Umbrella [15]: 0
- Ragweed plant response rating [16, 22]: 0
- Plant response rating, Ragweed [16, 25]: 10
- Foxtail, Giant plant response rating (0 to 100 scale) ([17]; 125 g ai/ha): 0
- Foxtail, Giant plant response rating [17, 25]: 50
- Blackgrass plant response rating [18, 22]: 10
- Plant response rating, Blackgrass [18, 25]: 50
- Wheat plant response rating [19, 22]: 0
- Plant response rating, Wheat [19, 25]: 30
- Ryegrass, Italian plant response rating (0 to 100 scale) ([20]; 125 g ai/ha): 0
- Ryegrass, Italian plant response rating [20, 25]: 20
